Consider 2 molecules from article PMC5719074, “Electrostatic Map Of Proteasome α-Rings Encodes The Design of Allosteric Porphyrin-Based Inhibitors Able To Affect 20S Conformation By Cooperative Binding” (Scientific Reports, 2017).

Assay [1] concerns wild-type yeast 20S proteasome. In words: Steady-state kinetic analysis (Lineweaver-Burk), Suc-LLVY-AMC. In kind it is biochemical. The source says: (§1) Proteasome activity assay.
(§2) Latent Core Particles (CP).
(§3) in a 384 multiwell black plate.
(§4) The IC50 is defined as the
(§5) double-reciprocal Lineweaver-Burk plot
(§6) squares. […] The goodness of fit was
(§7) [Etot ] = KI ⋅ 1 + 1 (S3a)
(§8) or an un-competitive inhibition equation:
(§9) [Etot ] = Km ⋅ 1 + KI (S3b)
(§10) or else a mixed inhibition equation: […]
(§11) different affinity for the two forms.
(§12) Cooperativity for Porphyrin Binding.
(§13) be described by Eq. (1b) 2 where Pc

The subject of assay [2] is α-3ΔN yeast mutant 20S. The assay is described as above. To be noted: yeast mutant α-3ΔN (open conformation). It is filed as biochemical.
Description: as §1, §2, §3, §4, §5, §6, §7, §8, §9, §10, §11, §12, §13

For assay [3], the system named is wild-type yeast 20S proteasome. In words: UV stopped-flow binding kinetics. To be noted: first cluster, 37 °C. The source says:
(§14) The analysis of kinetic progress curves, employing Eq. (S8), allows to obtain the values of k obs at different porphyrin concentrations, which can be exploited, for a classical bimolecular behavior, to obtain the association and dissociation rate constants according to Eq. (1a)1a kobs=kon⋅[Porph]+koff […]
(§15) Therefore, the classical bimolecular behavior, as from Eq. (1a), has been modified accordingly:1b kobs=(kc⋅Pc/Ptot+ko⋅Po/Ptot)⋅[Porph]+koff where k c and k o are the porphyrin binding rate constants to the 20S proteasome in the “closed” and in the “open” conformation, respectively, k off is the dissociation rate constant of the porphyrin, P c and P o are the relative percentage of the two conformations (“closed” and “open”, respectively) as a function of porphyrin concentration, as from Eqs. (S4–S7) (see SI). […]
(§16) Cooperativity for Porphyrin Binding. In the presence of (at least) two states (i.e., “open” and […]
(§17) corresponds to the population of “closed” 20S as a function of porphyrin concentration (with Kc being the porphyrin equilibrium binding constant for this conformation) and Po […]
(§18) Refers to the population of “open” 20S as a function of porphyrin concentration, Ko being the equilibrium porphyrin binding constant and L is the conformationa l equilibrium between the two states in the absence of porphyrins, as from Eq. (S6)

Assay [4] concerns α-3ΔN mutant of yeast 20S proteasome. In words: UV stopped-flow binding kinetics. To be noted: simple bimolecular binding, 37 °C.
Description: as §14, §15, §16, §17, §18

The target in assay [5] is human 20S proteasome ChT-L activity. As to conditions: read-out: IC50 ChT-L; 2 nM 20S, 30 min at 37°C, 100 µM substrate.
Description: (§19) Proteasome activity assay. 2 nM of 20S proteasome was incubated with increasing concentrations
(§20) of inhibitor (ranging from 0.5 to 3 µM) for 30 min at 37°C in the assay buffer (50 mM HEPES,
(§21) 1mM EDTA, pH7.5) and, subsequently, 100 µM of AMC-labeled substrate peptide was added
(§22) Proteasome activity was monitored by measuring the AMC fluorescence
(§23) at 440 nm (excitation at 360nm) for 20 min, using a fluorescence plate reader (Multiskan, Thermo)
(§24) A minimum of three replicates were performed for each data point.
(§25) Fluorescent substrate cleavage by the 20S proteasome was linear during this incubation time frame.
(§26) Data are expressed as normalized percentages of residual activity considering the slope of the
(§27) control (fluorogenic peptide/proteasome in the absence of inhibitors) as 100% of proteasome
(§28) activity. Dose-response plots of the residual proteasome activity in the presence of increasing
(§29) concentration of inhibitor provides a quantitative estimate of its potency. The IC50 is defined as the
(§30) concentration of the inhibitor which causes 50% reduction of activity and it is thus calculated from […]
(§31) (normalized for the enzyme concentration, v/[Etot]) was measured as a function of substrate
(§32) concentration (between 6 µM and 100 µM) for each inhibitor concentration (I) and analyzed as a […]
(§33) evaluated by visual examination of the fitted curves, 95% confidence bounds for the fitted […]
In assay [6] the target is human 20S proteasome T-L activity. As to conditions: read-out: IC50 T-L; 2 nM 20S, 30 min at 37°C, 100 µM substrate.
Description: as §19, §20, §21, §22, §23, §24, §25, §26, §27, §28, §29, §30, §31, §32, §33
Assay [7] has as its target human 20S proteasome PGPH-L activity. As to conditions: read-out: IC50 PGPH-L; 2 nM 20S, 30 min at 37°C, 100 µM substrate.
Description: as §19, §20, §21, §22, §23, §24, §25, §26, §27, §28, §29, §30, §31, §32, §33
The subject of assay [8] is T1, human 20S proteasome.
T1 construct: purchased Boston Biochem (Cambridge, MA, USA)
On the set-up: method as in PMID 22642538. As to conditions: cited from earlier work.

Take `C[n+]1ccc(-c2ccc(-c3c4nc(c(-c5ccc(-c6cc[n+](C)cc6)cc5)c5ccc([nH]5)c(-c5ccc(-c6cc[n+](C)cc6)cc5)c5nc(c(-c6ccc(-c7cc[n+](C)cc7)cc6)c6ccc3[nH]6)C=C5)C=C4)cc2)cc1` [compound 2, meso-tetrakis(4-N-methylphenylpyridyl)-porphyrin]: in assay [1], the inhibition mechanism result was “almost pure non-competitive”. Besides, the inhibition mechanism entry in assay [2] was “competitive inhibitor”. For the same molecule, in assay [3], the “L, open/closed conformational equilibrium in the absence of porphyrins” value is listed as 4.0 × 10^−6; the “kc, binding rate constant, closed conformation” value was found to be 130 M⁻¹ s⁻¹; the “ko, binding rate constant, open conformation” value is 7e+06 M⁻¹ s⁻¹. Also, in assay [4], the “ko, binding rate constant” value amounted to 2.5e+06 M⁻¹ s⁻¹.

Regarding `C[n+]1ccc(-c2c3nc(c(-c4cc[n+](C)cc4)c4ccc([nH]4)c(-c4cc[n+](C)cc4)c4nc(c(-c5cc[n+](C)cc5)c5ccc2[nH]5)C=C4)C=C3)cc1` [compound 1, meso-tetrakis(4-N-methylpyridyl) porphyrin], the concentration for half-maximal inhibition (IC50) – broadly, the point on the concentration scale where inhibition reaches its midpoint – worked out at 393 nM in assay [5], 640 nM in assay [6] and 140 nM in assay [7]. The inhibition mechanism result in assay [8] was “competitive and reversible inhibitor”.
